Measurements reported in article PMC3062745 (International journal for parasitology, 2011).
Like-named read-outs stand apart in the source and are kept apart here.

Tests used:
[1] = target: T1, Leishmania mexicana arginase (LmARG) (Leishmania mexicana, UniProt Q6TUJ5); assay: Inhibitor profile of recombinant LmARG; format: biochemical; details: for inhibition of LmARG / selective inhibition: preference for LmARG over HsARGI / block of LmARG activity (in words): 40 mM compound; for inhibition of LmARG / block of LmARG activity (in words): 40 mM L-arginine substrate; for selective inhibition: preference for LmARG over HsARGI: 40 mM L-arginine, comparison of the two enzymes; for Type of Inhibition: Dixon plot analysis, or assumed where Ki was calculated from panel data; for Ki: Dixon plot analysis; for inhibition: read-out: inhibition of LmARG
[2] = target: T2, human ARGI (HsARGI) (Homo sapiens, UniProt P05089); assay: Inhibitor profile of recombinant HsARGI; format: biochemical; details: for selective inhibition: preference for HsARGI over LmARG / block of HsARGI activity (in words) / inhibition of HsARGI: 40 mM compound; for selective inhibition: preference for HsARGI over LmARG: 40 mM L-arginine, comparison of the two enzymes; for block of HsARGI activity (in words) / inhibition of HsARGI: 40 mM L-arginine substrate; for inhibition at 40000 µM: read-out: inhibition of HsARGI
T2 sequence (P05089 1-322): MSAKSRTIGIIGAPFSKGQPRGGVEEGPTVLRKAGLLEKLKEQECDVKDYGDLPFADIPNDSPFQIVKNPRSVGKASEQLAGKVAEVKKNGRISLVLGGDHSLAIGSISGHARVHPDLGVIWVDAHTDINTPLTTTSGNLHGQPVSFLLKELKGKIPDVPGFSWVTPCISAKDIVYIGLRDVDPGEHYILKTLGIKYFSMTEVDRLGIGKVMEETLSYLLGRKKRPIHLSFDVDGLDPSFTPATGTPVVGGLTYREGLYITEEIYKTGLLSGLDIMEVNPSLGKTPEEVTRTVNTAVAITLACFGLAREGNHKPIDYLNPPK

[3] = target: T2, human ARGI (HsARGI); assay: HsARGI kinetic parameters and substrate specificity; format: biochemical; details: 50 mM, no L-arginine, 30 min
[4] = target: T1, Leishmania mexicana arginase (LmARG); assay: LmARG kinetic parameters and substrate specificity; details: 50 mM, no L-arginine, 30 min; data not shown
[5] = test system: Leishmania mexicana promastigotes; assay: Parasite proliferation assay; format: cell-based; details: read-out: EC50 (concentration that inhibited growth by 50%); L. mexicana promastigotes, 5 days, alamarBlue; data not shown
[6] = test system: L. major promastigotes; details: read-out: EC50 against L. major promastigotes; ref Reguera et al., 2009; cited from earlier work
[7] = test system: intact L. major promastigotes; details: ref Kropf et al., 2005; cited from earlier work
[8] = target: T1, Leishmania mexicana arginase (LmARG); format: biochemical; details: co-activation with manganese and zinc; data not shown
[9] = test system: N=C(N)NCCC[C@H](N)C(=O)O; assay: purified protein, by the assay type; details: other: non-linear regression, L-arginine 7.8 – 50 mM; pH 9.5; 37.0 °C

## NC(CCS)C(=O)O (racemic) [DL-homocysteine]
[1]
  inhibition of LmARG: > 50%
  selective inhibition: preference for LmARG over HsARGI: greater potency toward LmARG

## Nc1nc2nc(N)[nH]c2c(=O)[nH]1 [8-aminoguanine]
[1]
  selective inhibition: preference for LmARG over HsARGI: greater potency toward LmARG
  Type of Inhibition: Uncompetitive
  inhibition: > 50%
[1]; Ki vs. LmARG
  Ki: < 2000 µM
[2]
  selective inhibition: preference for HsARGI over LmARG: preferentially inhibited the HsARGI activity

## N[C@@H](CCCCB(O)O)C(=O)O [ABH, 2(S)-amino-6-boronohexanoic acid]
[1]
  block of LmARG activity (in words): completely blocked
  Type of Inhibition: Competitive
  inhibition: > 50%
[1]; Ki vs. LmARG
  Ki: 1.3 µM
[2]
  Ki: 3.5 µM
  block of HsARGI activity (in words): completely blocked
  inhibition at 40000 µM: > 50%

## N[C@@H](CSCCB(O)O)C(=O)O [BEC, S-(2-boronoethyl)-L-cysteine]
[1]
  block of LmARG activity (in words): completely blocked
  Type of Inhibition: Competitive
  inhibition: > 50%
[1]; Ki vs. LmARG
  Ki: ~10 µM
[2]
  Ki: 14 µM
  block of HsARGI activity (in words): completely blocked

## NC(N)=NCCC[C@@H](N)C(=O)O [D-arginine]
[3]
  activity as substrate of HsARGI: no activity
[4]
  activity as substrate of LmARG: did not recognize

## N[C@@H](CS)C(=O)O [L-cysteine]
[1]
  selective inhibition: preference for LmARG over HsARGI: greater potency toward LmARG
  Type of Inhibition: Competitive
  inhibition: > 50%
[1]; Ki vs. LmARG
  Ki: 11000 µM
[2]
  Ki: > 30000 µM

## CC(C)C[C@H](N)C(=O)O [L-leucine]
[2]
  selective inhibition: preference for HsARGI over LmARG: preferentially inhibited the HsARGI activity
  inhibition at 40000 µM: > 50%

## NCCCC[C@H](N)C(=O)O [L-lysine]
[2]
  selective inhibition: preference for HsARGI over LmARG: preferentially inhibited the HsARGI activity
  inhibition at 40000 µM: > 50%

## NCCC[C@H](N)C(=O)O [L-ornithine]
[2]
  selective inhibition: preference for HsARGI over LmARG: preferentially inhibited the HsARGI activity
  inhibition at 40000 µM: > 50%

## N=C(NO)NCCC[C@H](N)C(=O)O [NOHA, N^ω-hydroxy-L-arginine]
[1]
  block of LmARG activity (in words): completely blocked
  inhibition of LmARG: > 50%
  Type of Inhibition: Competitive
[1]; read-out: Ki vs. LmARG
  Ki: 85 µM
[2]
  block of HsARGI activity (in words): completely blocked
  inhibition of HsARGI: > 50%
[5]
  EC50: 6000 µM
[6]
  EC50: 40 µM

## NCCCCN=C(N)N [agmatine]
[3]
  activity as substrate of HsARGI: no activity
[4]
  activity as substrate of LmARG: did not recognize

## OB(O)O [boric acid]
[1]
  inhibition of LmARG: > 50%
[2]
  inhibition of HsARGI: > 50%
  selective inhibition: preference for HsARGI over LmARG: preferentially inhibited the HsARGI activity

## N=C(NO)NCC[C@H](N)C(=O)O [nor-NOHA, N^ω-hydroxy-nor-L-arginine]
[1]
  block of LmARG activity (in words): completely blocked
  Type of Inhibition: Competitive
  inhibition: > 50%
[2]
  block of HsARGI activity (in words): completely blocked
  inhibition at 40000 µM: > 50%
[7]
  inhibition of conversion of arginine to ornithine by intact promastigotes: does not inhibit

## N[C@@H](CCC(=O)N[C@H]1CSSC[C@H](NC(=O)CC[C@H](N)C(=O)O)C(=O)NCC(=O)NCCCNCCCCNC(=O)CNC1=O)C(=O)O [trypanothione]
[1]
  inhibition of LmARG: > 50%
  Type of Inhibition: Uncompetitive
[1]; read-out: Ki vs. LmARG
  Ki: < 5000 µM
[2]
  inhibition of HsARGI: > 50%
  selective inhibition: preference for HsARGI over LmARG: preferentially inhibited the HsARGI activity

## [Cl-].[Cl-].[Zn+2] [zinc, ZnCl2]
[8]
  LmARG activity on co-activation with manganese: reduced activity to zero

## Leishmania mexicana arginase (LmARG) (Leishmania mexicana)
[9]
  Km: 25 ± 4 mM
